Experimental findings from patent US11814367B2, “Inhibitors of glycogen synthase 1 (GYS1) and methods of use thereof” (Maze Therapeutics, Inc., priority 2021, dated 2023) are described below.

Assay [1] has as its target hGYS1 enzyme (recombinant hGYS1/GN1 protein) (Homo sapiens (Human), UniProt P13807). As to the kind of experiment: GYS1 coupled enzyme assay (PK/LDH). The assay is classed as biochemical. As to conditions: hGYS1/GN1 50 nM, UDP-Glucose 0.8 mM, G6P 1 mM; geometric mean of at least 2 runs.
The target of assay [2] is hGYS2 enzyme (recombinant hGYS2/GN1 protein) (Homo sapiens (Human), UniProt P54840). As to the kind of experiment: GYS2 coupled enzyme assay (PK/LDH). It counts as biochemical. To be noted: geometric mean of at least 2 assay runs on separate days, read-out: Avg_IC50. The method, boiled down:
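Recombinant hGYS2/GN1 (200 nM) with 2 mM UDP-glucose, 0.2% rabbit liver glycogen, 2 mM glucose-6-phosphate; UDP coupled via PK/LDH (2 mM PEP, 0.6 mM NADH). Buffer 50 mM Tris pH 7.5, 2 mM MgCl2, 100 mM KCl, 2.5% DMSO. A340 slope over 10 min; IC50 from Hill fit of duplicates.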

hGYS2 enzyme (recombinant hGYS2/GN1 protein), sequence (P54840 whole entry): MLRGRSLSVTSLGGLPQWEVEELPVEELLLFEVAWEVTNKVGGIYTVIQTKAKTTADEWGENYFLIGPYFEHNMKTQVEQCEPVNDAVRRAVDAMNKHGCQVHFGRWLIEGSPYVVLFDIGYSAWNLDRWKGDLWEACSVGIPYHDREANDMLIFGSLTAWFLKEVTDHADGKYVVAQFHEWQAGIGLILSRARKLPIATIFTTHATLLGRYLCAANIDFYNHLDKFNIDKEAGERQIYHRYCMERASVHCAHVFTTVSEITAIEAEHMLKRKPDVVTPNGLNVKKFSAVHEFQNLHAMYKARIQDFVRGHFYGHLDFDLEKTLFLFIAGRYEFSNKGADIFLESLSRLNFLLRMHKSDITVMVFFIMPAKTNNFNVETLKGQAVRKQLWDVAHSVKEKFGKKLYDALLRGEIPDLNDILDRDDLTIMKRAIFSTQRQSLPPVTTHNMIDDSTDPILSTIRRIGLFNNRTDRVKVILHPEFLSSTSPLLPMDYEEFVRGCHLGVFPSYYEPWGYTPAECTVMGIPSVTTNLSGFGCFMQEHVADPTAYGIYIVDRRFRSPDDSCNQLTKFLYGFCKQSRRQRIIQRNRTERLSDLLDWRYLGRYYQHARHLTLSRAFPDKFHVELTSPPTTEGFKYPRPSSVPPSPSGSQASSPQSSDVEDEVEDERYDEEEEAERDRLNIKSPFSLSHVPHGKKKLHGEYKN
hGYS2 enzyme (recombinant hGYS2/GN1 protein), sequence (P46976 whole entry partner): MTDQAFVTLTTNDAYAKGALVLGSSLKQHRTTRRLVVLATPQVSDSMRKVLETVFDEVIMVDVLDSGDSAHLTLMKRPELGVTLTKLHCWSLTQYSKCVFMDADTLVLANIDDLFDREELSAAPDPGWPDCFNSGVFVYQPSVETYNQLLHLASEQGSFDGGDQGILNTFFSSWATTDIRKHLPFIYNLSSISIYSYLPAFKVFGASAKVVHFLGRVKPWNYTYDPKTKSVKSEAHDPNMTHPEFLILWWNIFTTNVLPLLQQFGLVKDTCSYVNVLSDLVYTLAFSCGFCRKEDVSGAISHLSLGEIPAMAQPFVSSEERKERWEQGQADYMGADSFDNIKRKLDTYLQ
hGYS1 enzyme (recombinant hGYS1/GN1 protein), sequence (P13807 whole entry): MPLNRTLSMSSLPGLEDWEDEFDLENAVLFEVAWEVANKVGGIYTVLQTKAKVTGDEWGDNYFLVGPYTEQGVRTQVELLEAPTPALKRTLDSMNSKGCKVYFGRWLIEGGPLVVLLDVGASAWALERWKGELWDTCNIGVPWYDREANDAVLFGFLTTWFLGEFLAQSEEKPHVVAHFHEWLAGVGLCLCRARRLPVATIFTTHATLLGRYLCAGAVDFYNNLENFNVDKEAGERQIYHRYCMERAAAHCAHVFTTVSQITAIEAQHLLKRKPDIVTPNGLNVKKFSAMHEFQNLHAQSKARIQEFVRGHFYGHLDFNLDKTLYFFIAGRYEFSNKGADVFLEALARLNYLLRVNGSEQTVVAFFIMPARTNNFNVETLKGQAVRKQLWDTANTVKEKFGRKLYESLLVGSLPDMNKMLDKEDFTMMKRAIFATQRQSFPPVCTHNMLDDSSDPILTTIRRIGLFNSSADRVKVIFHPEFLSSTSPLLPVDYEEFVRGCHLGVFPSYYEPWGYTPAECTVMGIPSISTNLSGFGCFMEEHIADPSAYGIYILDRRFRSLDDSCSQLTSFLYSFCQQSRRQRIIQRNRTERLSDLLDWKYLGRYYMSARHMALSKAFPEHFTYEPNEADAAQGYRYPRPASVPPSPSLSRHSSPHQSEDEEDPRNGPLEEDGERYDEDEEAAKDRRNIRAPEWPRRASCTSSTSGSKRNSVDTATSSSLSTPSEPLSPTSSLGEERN
hGYS1 enzyme (recombinant hGYS1/GN1 protein), sequence (P46976 whole entry partner): as the sequence (P46976 whole entry partner) above

Turning to `CC(C)c1ccc([C@@H](NC(=O)[C@@H]2C[C@@H](F)CN2C(=O)Cc2ccon2)c2ccccc2)cc1` [Compound 231, (2S,4R)-4-fluoro-1-[2-(1,2-oxazol-3-yl)acetyl]-N-[(S)-phenyl[4-(propan-2-yl)phenyl]methyl]pyrrolidine-2-carboxamide], the IC50 in assay [1] is 105 nM; in assay [2], more than 100000 nM.
Taken in the same sequence, the figures for `CC(C)c1ccc([C@@H](NC(=O)[C@@H]2[C@H]3C[C@H]3CN2C(=O)Cc2cnn[nH]2)c2ccccc2)cc1F` [Compound 325, (1S,2S,5R)-N-[(S)-[3-fluoro-4-(propan-2-yl)phenyl](phenyl)methyl]-3-[2-(1H-1,2,3-triazol-5-yl)acetyl]-3-azabicyclo[3.1.0]hexane-2-carboxamide] were 75 nM and more than 100000 nM.
For `CC(C)c1ccc([C@@H](NC(=O)[C@@H]2C[C@@H](F)CN2C(=O)CCc2cnc3[nH]ccc3c2)c2ccccc2)cc1` [Compound 134, (2S,4R)-4-fluoro-N-[(S)-phenyl[4-(propan-2-yl)phenyl]methyl]-1-(3-{1H-pyrrolo[2,3-b]pyridin-5-yl}propanoyl)pyrrolidine-2-carboxamide], in that order: 41 nM and more than 100000 nM.
Taken in the same sequence, the figures for `CC(C)c1ccc([C@@H](NC(=O)[C@@H]2C[C@@H](F)CN2C(=O)CN2CCCCC2=O)c2ccccc2)cc1` [Compound 85, (2S,4R)-4-fluoro-1-[2-(2-oxopiperidin-1-yl)acetyl]-N-[(S)-phenyl[4-(propan-2-yl)phenyl]methyl]pyrrolidine-2-carboxamide] were 154 nM and more than 100000 nM.
As to `Cc1ccc(CCC(=O)N2C[C@H](F)C[C@H]2C(=O)N[C@@H](c2ccccc2)c2ccc(C(C)C)cc2)cn1` [Compound 100, (2S,4R)-4-fluoro-1-[3-(6-methylpyridin-3-yl)propanoyl]-N-[(S)-phenyl[4-(propan-2-yl)phenyl]methyl]pyrrolidine-2-carboxamide], the figures for the IC50 in assay [1] and in assay [2] were 73 nM and more than 100000 nM, respectively.
For `CC(C)c1ccc([C@@H](NC(=O)[C@@H]2CCCN2C(=O)CNC(=O)OC(C)(C)C)c2ccccc2)cc1` [Compound 210, tert-butyl N-{2-oxo-2-[(2S)-2-{[(S)-phenyl[4-(propan-2-yl)phenyl]methyl]carbamoyl}pyrrolidin-1-yl]ethyl}carbamate], the values for the IC50 in assay [1] and in assay [2] were 107 nM and more than 100000 nM, respectively.
For `COc1ccc(F)cc1CC(=O)N1C[C@H](F)C[C@H]1C(=O)N[C@@H](c1ccccc1)c1ccc(C(C)C)cc1` [Compound 90, (2S,4R)-4-fluoro-1-[2-(5-fluoro-2-methoxyphenyl)acetyl]-N-[(S)-phenyl[4-(propan-2-yl)phenyl]methyl]pyrrolidine-2-carboxamide], in that order: 32 nM and more than 100000 nM.
For `CC(C)c1ccc([C@@H](NC(=O)[C@@H]2C[C@@H](F)CN2C(=O)C(C)c2cnn[nH]2)c2ccccc2)cc1F` (single isomer, unassigned) [Compound 770, (2S,4R)-4-fluoro-N-[(S)-[3-fluoro-4-(propan-2-yl)phenyl](phenyl)methyl]-1-[(2S) or (2R)-2-(1H-1,2,3-triazol-5-yl)propanoyl]pyrrolidine-2-carboxamide], in that order: 62 nM and more than 100000 nM.
Taken in the same sequence, the figures for `CC(C)c1ccc([C@@H](NC(=O)[C@@H]2C[C@@H](F)CN2C(=O)Cc2cncnc2)c2ccccc2)cc1` [Compound 27, (2S,4R)-4-fluoro-N-[(S)-phenyl[4-(propan-2-yl)phenyl]methyl]-1-[2-(pyrimidin-5-yl)acetyl]pyrrolidine-2-carboxamide] were 23 nM and more than 100000 nM.
For the compound `CC(C)c1c(F)cc(C(NC(=O)[C@@H]2C[C@@H](F)CN2C(=O)Cc2ncco2)c2ccccc2)cc1F` (single isomer, unassigned) [Compound 661, (2S,4R)-N-[(S) or (R)-[3,5-difluoro-4-(propan-2-yl)phenyl](phenyl)methyl]-4-fluoro-1-[2-(1,3-oxazol-2-yl)acetyl]pyrrolidine-2-carboxamide], the results for the IC50 in assay [1] and in assay [2] were 43 nM and more than 100000 nM, respectively.
Consider `COc1ccc(CC(=O)N2C[C@H](F)C[C@H]2C(=O)N[C@@H](c2ccccc2)c2ccc(C(C)C)cc2)cc1F` [Compound 89, (2S,4R)-4-fluoro-1-[2-(3-fluoro-4-methoxyphenyl)acetyl]-N-[(S)-phenyl[4-(propan-2-yl)phenyl]methyl]pyrrolidine-2-carboxamide], for which the IC50 in assay [1] is 60 nM; in assay [2], more than 100000 nM.
Take `CC(C)c1ccc([C@@H](NC(=O)[C@@H]2C[C@@H](F)CN2C(=O)CN2C(=O)CNC2=O)c2ccccc2)cc1` [Compound 117, (2S,4R)-1-[2-(2,5-dioxoimidazolidin-1-yl)acetyl]-4-fluoro-N-[(S)-phenyl[4-(propan-2-yl)phenyl]methyl]pyrrolidine-2-carboxamide]: the values for the IC50 in assay [1] and in assay [2] were 49 nM and more than 100000 nM, respectively.
For `CC(=O)N1C[C@H](F)C[C@H]1C(=O)NC(c1ccccc1)c1ccc(C2CCC2)cn1` (single isomer, unassigned) [Compound 603, (2S,4R)-1-acetyl-N-[(S) or (R)-(5-cyclobutylpyridin-2-yl) (phenyl)methyl]-4-fluoropyrrolidine-2-carboxamide], in that order: 602 nM and more than 100000 nM.
For `Cc1noc(C)c1CCC(=O)N1C[C@H](F)C[C@H]1C(=O)N[C@@H](c1ccccc1)c1ccc(C(C)C)cc1` [Compound 103, (2S,4R)-1-[3-(3,5-dimethyl-1,2-oxazol-4-yl)propanoyl]-4-fluoro-N-[(S)-phenyl[4-(propan-2-yl)phenyl]methyl]pyrrolidine-2-carboxamide], in that order: 162 nM and more than 100000 nM.
Taken in the same sequence, the figures for `CC(C)c1ccc([C@@H](NC(=O)[C@@H]2C[C@@H](F)CN2C(=O)CCCc2ccncc2)c2ccccc2)cc1` [Compound 95, (2S,4R)-4-fluoro-N-[(S)-phenyl[4-(propan-2-yl)phenyl]methyl]-1-[4-(pyridin-4-yl)butanoyl]pyrrolidine-2-carboxamide] were 130 nM and more than 100000 nM.
Regarding `CC(C)c1ccc([C@@H](NC(=O)[C@@H]2C[C@@H](F)CN2C(=O)Cn2ccccc2=O)c2ccccc2)cc1` [Compound 51, (2S,4R)-4-fluoro-1-[2-(2-oxo-1,2-dihydropyridin-1-yl)acetyl]-N-[(S)-phenyl[4-(propan-2-yl)phenyl]methyl]pyrrolidine-2-carboxamide], the IC50 is 19 nM in assay [1] and more than 100000 nM in assay [2].
Taken in the same sequence, the figures for `CC(=O)N1CCC2(CC1)CC2C(=O)N1C[C@H](F)C[C@H]1C(=O)N[C@@H](c1ccccc1)c1ccc(C(C)C)cc1` (stereo partly drawn) [Compound 174, (2S,4R)-1-{6-acetyl-6-azaspiro[2.5]octane-1-carbonyl}-4-fluoro-N-[(S)-phenyl[4-(propan-2-yl)phenyl]methyl]pyrrolidine-2-carboxamide] were 179 nM and more than 100000 nM.
For `CC(C)c1ccc([C@@H](NC(=O)[C@@H]2C[C@@H](F)CN2C(=O)CN2CCCC2=O)c2ccccc2)cc1` [Compound 192, (2S,4R)-4-fluoro-1-[2-(2-oxopyrrolidin-1-yl)acetyl]-N-[(S)-phenyl[4-(propan-2-yl)phenyl]methyl]pyrrolidine-2-carboxamide], in that order: 76 nM and more than 100000 nM.
For `CC(C)c1ccc([C@@H](NC(=O)[C@@H]2C[C@@H](F)CN2C(=O)Cc2cn(C)nn2)c2ccccc2)cc1` (stereo in doubt) [Compound 229, (2RS,4R)-4-fluoro-1-[2-(1-methyl-1H-1,2,3-triazol-4-yl)acetyl]-N-[(S)-phenyl[4-(propan-2-yl)phenyl]methyl]pyrrolidine-2-carboxamide], in that order: 25 nM and more than 100000 nM.
In the case of `CC(C)c1ccc([C@@H](NC(=O)[C@@H]2C[C@@H](F)CN2C(=O)Cc2noc(C(C)C)n2)c2ccccc2)cc1` [Compound 87, (2S,4R)-4-fluoro-N-[(S)-phenyl[4-(propan-2-yl)phenyl]methyl]-1-{2-[5-(propan-2-yl)-1,2,4-oxadiazol-3-yl]acetyl}pyrrolidine-2-carboxamide], the IC50 in assay [1] was 28 nM; in assay [2] it was more than 100000 nM.
For `Cc1n[nH]c(C)c1CC(=O)N1C[C@H](F)C[C@H]1C(=O)N[C@@H](c1ccccc1)c1ccc(C2CC2)c(F)c1` [Compound 444, (2S,4R)-N-[(S)-(4-cyclopropyl-3-fluorophenyl)(phenyl)methyl]-1-[2-(3,5-dimethyl-1H-pyrazol-4-yl)acetyl]-4-fluoropyrrolidine-2-carboxamide], in that order: 44 nM and more than 100000 nM.
For `O=C(N[C@@H](c1ccccc1)c1ccc(C2CC2)c(F)c1)[C@@H]1C[C@@H](F)CN1C(=O)Cc1nnco1` [Compound 426, (2S,4R)-N-[(S)-(4-cyclopropyl-3-fluorophenyl)(phenyl)methyl]-4-fluoro-1-[2-(1,3,4-oxadiazol-2-yl)acetyl]pyrrolidine-2-carboxamide], in that order: 363 nM and more than 100000 nM.
For `CC(C)c1ccc([C@@H](NC(=O)[C@@H]2C[C@@H](F)CN2C(=O)Cc2c[nH]cn2)c2ccccc2)cc1` [Compound 18, (2S,4R)-4-fluoro-1-[2-(1H-imidazol-4-yl)acetyl]-N-[(S)-phenyl[4-(propan-2-yl)phenyl]methyl]pyrrolidine-2-carboxamide], in that order: 45 nM and more than 100000 nM.
For “(2S,4R)-N-[(S)-(4- cyclopropyl-3- fluorophenyl)(phenyl) methyl]-4-fluoro-1- [2-(1H-1,2,3-triazol-5- yl)acetyl]pyrrolidine- 2-carboxamide [Compound 439]”, the results for the IC50 in assay [1] and in assay [2] were 185 nM and more than 100000 nM, respectively.
